Measured values as given in patent publication EP3431088A1, “MNTBAP FOR USE IN INDUCING A TRANSIENT IMMUNE TOLERANCE” (priority 2017, dated 2019).

Key:
Format in all cases: in vivo, C57BL/6 mice
[1] = system: specific T-cell immune responses against OVA peptides; assay: OVA peptides subcutaneous immunization, IFN-γ ELISPOT on spleen cells; conditions: 80 mg/kg IP daily 5 days, vs PBS + OVA / IFA
Procedure: (§1) MnTBAP (Calbiochem, San Diego, USA or Enzo Life Sciences, Farmingdale, USA) is dissolved in 75 mM NaOH to constitute a 20 mM stock solution. MnTBAP is dissolved in the complete medium, used for in vitro treatment, containing RPMI-1640 supplemented with 10% heat-inactivated fetal calf serum, 100 U/ml penicillin/streptomycin, 2 mM glutamax and 50 µM β-mercaptoethanol β-ME). Hypertonic medium, used to block clathrin dependent endocytosis, is complete medium supplemented with 0.45 M sucrose. For in vivo treatment, the stock solution is diluted with PBS and administered at 80 mg/kg intraperitoneally daily during five days. Control animals are injected with equivalent volume of PBS.
A mixture of chicken egg albumin (OVA) peptides is administrated subcutaneously in mice anesthetized by intraperitoneal injection of xylazine (10 mg/kg) and ketamine (100 mg/kg). OVA257-264 (SEQ ID NO: 3; SIINFEKL) (InvivoGen, San Diego, USA) is a class I (Kb)-restricted peptide epitope of OVA presented by the class I major histocompatibility complex molecule (CMH) H-2Kb. OVA323-339 (SEQ ID NO: 4; ISQAVHAAHAEINEAGR) (AnaSpec, San Jose, USA) is an H-2b-restricted OVA class II epitope. 100 µg of each peptide complexed with the same volume of incomplete Freund's adjuvant (IFA) (Sigma-Aldrich) are administrated. Controls are injected with PBS-IFA complexes. OVA peptides- and PBS-IFA complexes are injected two hours or 21 days post first intraperitoneal injection of MnTBAP (or PBS). Eight days post OVA peptides injection, mice are sacrificed and spleens harvested to analyze OVA-specific T cell response.
Spleens are harvested to analyze the cellular immune anti-transgene response by T-cell cytokine response assay. Multiscreen-HA Assay System 96-well Filtration plates (Merck) are coated overnight with 2.5 µg/ml of anti-mouse IFN-γ purified mAb (eBiosciences) at 4°C, washed, and then blocked with RPMI 1640 medium (Life Technologies, Saint-Aubin, France) supplemented with 10% heat inactivated fetal bovine serum (FCS), 100U/ml penicillin/streptomycin (Thermo Fisher Scientific) and 2mM GlutaMAXTM-I (Life technologies) for 2 hours at 37°C. Plates are washed three times with RPMI 1640 medium without FCS. Splenocytes are added in duplicate to the IFN-γ-coated well (1 or 0.5 x 10^6 cells/well) and cultured in presence of Dby or Uty peptide (Genepep, Montpellier, France) at 2 µM or in presence of OVA peptides at 10 µg/ml. As a positive control, cells are stimulated with Concanavalin A (Sigma-Aldrich) at 1 µg/ml in each test. […] Spots are counted using an AID reader (Ceipheid Benelux, Louven, Belgium). Spot forming units (SFU) per million cells for each mouse are calculated as the average value of duplicate measures after subtraction of background values obtained with in vitro unstimulated splenocytes.

[2] = system: humoral response against capsid; assay: Anti-rAAV1 IgG titers by ELISA after IV rAAV and readministration; conditions: for specific anti-rAAV IgG: 80 mg/kg IP daily 5 days, vs control group
Procedure: as §1
Intravenous (IV) injection: Two hours post first IP injection of MnTBAP, mice are anesthetized by IP injection of xylazine (10 mg/kg) and ketamine (100 mg/kg) and 200 µl of a rAAV2/1 CMV SGCA HY viral preparation containing 2.5.10^9 vg is injected into retro orbital sinus or into tail vein. Controls are injected with PBS. Serum samples are harvested at D21 and D28 post vector injection to analyze capsid-specific humoral response.
Readministration protocol: After the initial IV injection of rAAV2/1 CMV SGCA HY vector at D0 (two hours post first IP injection of MnTBAP) the second rAAV1 injection (2.10^9 vg of rAAV2/1 CMV mSeAP) is performed 28 days later in the left TA muscle. Mice are followed up to 93 days after readministration to analyze capsid-specific humoral response and to measure circulating mSeAP from serum samples. Mice are killed 93 days after second injection of vector. Left and right TA muscles are harvested for histological and enzymatic assay.
rAAVl-specific serum antibody titers are evaluated by ELISA. […] Reaction is stopped with an H2SO4 solution and the optical density at 450 nm is determined using a […] (Discovery HT-R, BioServ, Thiais, France) with KC4 software. The area under the curve (AUC) values obtained from the optical densities at four dilution points are calculated for statistical analysis using GraphPad Prism software (Logi Labo, Paris, France).

injected TA muscle = assay: IM rAAV gene transfer: histology and RT-PCR of injected TA muscle; conditions: fifteen days post IM rAAV1 vector injection
[3] = OVA/IFA immunization 21 days after first injection
[4] = OVA/IFA immunization two hours after first injection
[5] = injected TA, vs non-treated control groups

`O=C(O)c1ccc(-c2c3nc(c(-c4ccc(C(=O)O)cc4)c4ccc([n-]4)c(-c4ccc(C(=O)O)cc4)c4nc(c(-c5ccc(C(=O)O)cc5)c5ccc2[n-]5)C=C4)C=C3)cc1.[Mn+3]` [MnTBAP, manganese [III] tetrakis (4-benzoic acid) porphyrin] was tested, and the “IFN-γ production by OVA-specific CD4^+ T cells” value [1, 3] was “produce low levels of IFN-γ with no significant differences”, the “IFN-γ production by OVA-specific CD8^+ T cells” value [1, 3] was “produce IFN-γ with no significant differences” and the “IFN-γ production by OVA-specific CD4^+ T cells” value [1, 4] was “not able to produce IFN-γ”. The “IFN-γ production by OVA-specific CD8^+ T cells” value [1, 4] was “not able to produce IFN-γ”, the “specific anti-rAAV IgG” value ([2]; Day 21 post IV vector injection) was “no or significantly less specific anti-rAAV IgG” and the “specific anti-rAAV IgG” value ([2]; Day 28 post IV vector injection) was “no or significantly less specific anti-rAAV IgG”. For the same compound, the “specific anti-rAAV IgG titer” value ([2]; serum 10 days after vector readministration in TA (28 days post first injection), vs PBS) was “decrease of specific anti-rAAV IgG titer”, the muscle integrity (injected TA muscle; 80 mg/kg IP daily 5 days) was “normal muscle integrity” and the “CD8a mRNA expression” value (injected TA muscle; [5]) was “decrease of CD8a mRNA expression”. For the same compound, the SGCA transgene expression (injected TA muscle; [5]) was “increase of the SGCA transgene expression”.
